Test results published in US20230149507A1, “TREATMENT OF ALT CANCERS” (INSTITUTO DE MEDICINA MOLECULAR JOÃO LOBO ANTUNES, priority 2019, published 2023).

Assays:
Assay type in all cases: cell-based, human
U-2 OS cells [1] = experiment: Metaphase-TIFs in cells overexpressing FANCM variants; details: stable overexpression
Description: (§1) (a) Schematic of FANCM domain interactions, mutations or deletions. For clarity, domains have been color coded by functional role (bottom panel). (b) Quantitation of metaphase-TIFs in U-2 OS cells stably overexpressing wild-type (FANCM+) or FANCM mutants. Scatterplot bars represent the mean±SEM. Out of 3 experiments, n≥110 metaphases scored for each mutant, *p<0.05, **p<0.005, Mann-Whitney test. (c) Quantitation of fragile telomeres in U-2 OS cells stably overexpressing wild-type (FANCM+) or FANCM mutants. Scatterplot bars represent the mean±SEM. Out of 3 experiments, n>100 metaphases scored for each mutant, *p<0.05, **p<0.005, Mann-Whitney test. (d) Representative dot blots and quantitation of C-circle assays in U-2 OS cells stably overexpressing wild-type (FANCM+) or FANCM domain mutants. C-circles were normalized to the mean of vector control. Error bars represent mean±SEM from n=3 experiments, *p<0.05, **p<0.005, Student's t-test. (e) Single molecule analysis of telomeric extension events (top panel) and length of extension events (bottom panel) in U-2 OS cells stably overexpressing wild-type (FANCM+) or FANCM domain mutants. Error bars represent mean±SEM of n≥350 fibers out of 3 experiments, *p<0.05, **p<0.005, Student's t-test.
(§2) FIG. 23. Defects in ALT phenotype suppression are exacerbated by overexpression of a double-mutant (DM) FANCM, in which both the MM2 domain (FF>AA) and the translocase domain (K117R) of FANCM are mutated. (a) Representative dot blots and quantitation of C-circle assays in U-2 OS cells stably overexpressing wild-type (WT) or FANCM domain mutants (K117R, FF>AA; DM). C-circles were normalized to the mean of empty vector control (EV). Error bars represent mean±SEM from n=3 experiments, *p<0.05, **p<0.005, Student's t-test. (b) Quantitation of APB frequency in U-2 OS cells overexpressing wild-type (WT) or FANCM mutants. Scatterplot bars represent the mean±SEM. Out of three experiments, n=150 cells were scored for each mutant, **p<0.005, Mann-Whitney test. (c) Quantitation of metaphase-TIFs in U-2 OS cells stably overexpressing wild-type (WT) or FANCM mutants. Scatterplot bars represent the mean±SEM. Out of three experiments, n=120 metaphases scored for each mutant, *p<0.05, **p<0.005, Mann-Whitney test. All statistical comparisons are relative to EV control.
(§3) Empty vector and wild-type FANCM (pCMV6-Myc-DDK) constructs were obtained from Origene Technologies. Wild type FANCM (SEQ ID NO: 2) and FANCM mutants (SEQ ID NOs: 19 to 28) were cloned into the pLenti-C-Myc-DDK-IRES-Neo backbone (Origene Technologies) by restriction enzyme subcloning of gene blocks synthesized by Integrated DNA Technologies (IDT). Lentivirus was produced by the Vector and Genome Engineering Facility (Children's Medical Research Institute). For stable overexpression, cells were transduced with lentivirus, allowed to recover for 24 h, and subject to G418 selection. Cells were maintained in G418 to ensure sustained overexpression.
(§4) Indirect IF and telomere FISH were performed on both interphase nuclei and metaphase spreads. For interphase IF experiments, cells were grown on coverslips or LabTek chamber slides (Thermo Scientific). Slides were prepared as described in Sobinoff et al., 2017. Cells on coverslips were washed twice with PBS, permeabilized with KCM buffer (120 mM KCl, 20 mM NaCl, 10 mM Tris pH 7.5, 0.1% Triton), washed again with PBST and PBS, then fixed with ice-cold 4% formaldehyde PBS solution at room temperature for 10 min. […]

U-2 OS cells [2] = experiment: APB frequency and APB telomere intensity in cells overexpressing FANCM variants; details: overexpression
Description: (a) Western immunoblotting of stable wild-type FANCM (FANCM+) or FANCM mutant overexpression in U-2 OS cells. […] (b) TRF analysis of U-2 OS cells overexpressing wild-type (FANCM+) or FANCM mutants. Gels were hybridized under native and denatured conditions with radiolabelled telomeric probes to detect the C-strand and G-strand. (c) Tukey boxplots of APB frequency (top panel) and mean APB telomere intensity (bottom panel) in U-2 OS cells overexpressing wild-type (FANCM+) or FANCM mutants. Out of 3 experiments, n=150 cells scored per variant, *p<0.05, **p<0.005, Mann-Whitney test.
as §2, §3
Indirect IF and telomere FISH were performed on both interphase nuclei and metaphase spreads. For interphase IF experiments, cells were grown on coverslips or LabTek chamber slides (Thermo Scientific). Slides were prepared as described in Sobinoff et al., 2017. Cells on coverslips were washed twice with PBS, permeabilized with KCM buffer (120 mM KCl, 20 mM NaCl, 10 mM Tris pH 7.5, 0.1% Triton), washed again with PBST and PBS, then fixed with ice-cold 4% formaldehyde PBS solution at room temperature for 10 min. Coverslips were blocked with antibody-dilution buffer (20 mM Tris-HCl, pH 7.5, 2% (w/v) BSA, 0.2% (v/v) fish gelatin, 150 mM NaCl, 0.1% (v/v) Triton X-100 and 0.1% (w/v) sodium azide) and 0.1 mg/ml RNaseA for 30 min at 37° C. Cells were incubated with primary antibodies (Supplementary Table 1) for 1 h at 37° C. or 2 h at room temperature, then incubated with 1:1,000 dilution of appropriate Alexa Fluor conjugated secondary antibodies (Thermo Scientific). Coverslips were rinsed with PBS then fixed with 4% (v/v) formaldehyde at room temperature prior to telomere FISH. Coverslips were subjected to a graded ethanol series (75% for 2 min, 85% for 2 min, and 100% for 2 min) and allowed to air-dry. […]

U-2 OS cells [3] = experiment: C-circle assay in cells overexpressing FANCM variants; details: stable overexpression, compared to vector control
Description: as §1, §2, §3
C-circles were amplified with Phi29 polymerase using dATP, dTTP and dGTP overnight. Products were dot blotted onto Biodyne B membranes (Pall) and pre-hybridised in PerfectHyb Plus (Sigma) for at least 30 min. Radiolabeled telomeric C-probe was then added and blots were hybridized overnight at 37° C. (Henson et al., 2009). Blots were washed with 0.5×SSC, 0.1% SDS three times for 5 min each then exposed to phosphor screen. Imaging was performed on the Typhoon FLA 7000 system (GE Healthcare) with a PMT of 750 V.

U-2 OS cells [4] = experiment: Fragile telomeres in cells overexpressing FANCM variants; details: stable overexpression
Description: as §1, §3
as §4, with “min. Coverslips were blocked with antibody-dilution buffer (20 mM Tris-HCl, pH 7.5, 2% (w/v) BSA, 0.2% (v/v) fish gelatin, 150 mM NaCl, 0.1% (v/v) Triton X-100 and 0.1% (w/v) sodium azide) and 0.1 mg/ml RNaseA for 30 min at 37° C.” for “min.”

Substance | telomere dysfunction (metaphase-TIFs) (U-2 OS cells [1]) | number of APBs (U-2 OS cells [2]) | C-circle levels (U-2 OS cells [3]) | number of fragile telomeres (telomere fragility) (U-2 OS cells [4])
DM: double mutant FANCM with both the K117R substitution and the FF>AA double substitution (SEQ ID NO:35) | enhanced telomere dysfunction | greater increase in the number of APBs | significantly greater increase in C-circles | 
ERCC4: FANCM ERCC4 domain mutant (SEQ ID NO: 27), deletion at amino acid residues 1815-1922 |  |  | did not cause a change in C-circle levels | 
HhH: FANCM HhH domain mutant (SEQ ID NO: 28), deletion at amino acid residues 1971-2048 |  |  | did not cause a change in C-circle levels | 
MID: FANCM MID domain mutant (SEQ ID NO: 21) substituted at V749G/H751G | significantly increased |  |  | significantly increased
wild-type FANCM: wild type FANCM (SEQ ID NO: 2) stably overexpressed by lentivirus | significant decrease |  | significant decrease in C-circle generation | significant decrease
